Reference: patent publication US20220016079A1, “COMBINATION TREATMENT OF HIV INFECTIONS” (priority 2018, published 2022)

Legend:
2D10 cells = assay: Cytotoxicity by LDH assay in 2D10 cells; type: cell-based; conditions: 0 to 20 μM, 48 h
Protocol: Drug titration was conducted.
For analysis of cell viability, cells (100,000 cells/100 μL) were treated in triplicate for 48 h with increasing concentrations of Debio-1143 or other known LRAs (0 to 20 μM). Cellular cytotoxicity was analyzed by Lactate dehydrogenase (LDH) assay. LDH is an oxidoreductase enzyme that catalyzes the interconversion of pyruvate and lactate. Cells release LDH into the bloodstream after tissue damage or red blood cell hemolysis. Since LDH is a fairly stable enzyme, it has been widely used to evaluate the presence of damage and toxicity of tissue and cells. In this particular, LDH reduces NAD to NADH, which is specifically detected by colorimetric (490 nm) assay.

[1] = test system: latent HIV-1 in 2D10 cells; assay: HIV-1 reactivation in latent GFP-reporter 2D10 cells, Debio 1143 and other LRAs alone or in combination; type: cell-based; conditions: LRA at single predetermined concentration with Debio 1143, already at 2 μM Debio 1143, 48 h
Protocol: We compared the efficacy of Debio-1143 at reversing HIV-1 latency with that of other LRAs. We then analyzed the cytotoxicity of Debio-1143 with that of the other LRAs on 2D10 cells. Drug titration was conducted.
Methods: HIV-1 latent GFP-reporter 2D10 cells (100,000 cells/100 μL) were treated in triplicate for 48 h with increasing concentrations of either only Debio-1143 or the LRAs (2000 nM or 20000 nM), or with Debio 1143 (2000 nM or 20000 nM) in combination with the LRAs at a single predetermined concentration (see Table 2). HIV reactivation was analyzed via GFP expression by flow cytometry.

[2] = test system: latent HIV-1 in rCD4+ cells co-cultured with CD8+ cells; assay: HIV-1 reactivation in ex vivo co-cultures of rCD4+ and CD8+ cells from an ART-treated HIV patient (HIV RNA in supernatant); type: cell-based, human
Protocol: The efficacy of IAPa, ICI or IAPa/ICI combinations in reversing HIV-1 latency was tested in HIV-1 infected rCD4+ cells co-cultured for 48 h with CD8+ cells from the same donor.
Method: Blood from one HIV-1-infected patient under ART was collected (500 mL) and CD4+ and CD8+ cells isolated using beads coated with specific antibodies following manufacturer's instruction (MojoSort™ Human Cell Isolation Kits from Biolegend). The CD4+ T cells were re-infected with HIV-1 (JR-CSF) (1 μg of p24), incubated for 3 days to allow establishment of infection, and treated with ART ([…]) for 7 days to ensure presence of enough latent HIV CD4+ cells (rCD4+) in the culture. Upon ART removal, rCD4 were then isolated following manufacturer's instruction (EasySep™ Human Resting CD4+ T Cell Isolation Kit). The isolated rCD4 were mixed with autologous (from the same patient) uninfected CD8+ T cells at a 1:1 ratio (100,000 cells) and incubated in duplicate for 48 h with different IAPa ([…]) or ICI (10 μg/ml) in monotherapy, or the IAPa/ICI combinations. Amounts of virions released from cells were quantified at the indicated time points by quantifying HIV RNA levels (HIV RNA copies/mL) in supernatant of cell culture using one-step reverse transcriptase quantitative real-time PCR (ABI custom TaqMan Assays-by-Design) according to the manufacturer's instructions. Primers were 5-[…]-3 and 5-[…]-3, and MGB probe 5-FAM-[…]-Q-3, where FAM is 6-carboxyfluorescein.

BIRC2 = biological target: T1, BIRC2 (Homo sapiens, UniProt Q13490); assay: BIRC2 (cIAP1) degradation by Western blotting; type: cell-based; conditions: TNFα 10 ng/ml, 2D10 and 293T cells
T1 construct: endogenous in cells; host or cells: 2D10, 293T and CD4+ T cells
Protocol: It was investigated whether Debio-1143 reverses HIV-1 latency by acting on the NF-κB pathway. Canonical and non-canonical NF-κB signaling pathways play an important role in the reactivation of latent HIV-1, implicating its regulation as an important therapeutic strategy for latency reversal.
Method: 2D10 (A) or 293T (B) and CD4+ T cells (C) cells were treated with DMSO, Debio-1143 (1 μM) and TNFα (10 ng/ml) for the indicated times and analyzed by Western blotting for BIRC2 and IkBα protein expression using antibodies specifically detecting human BIRC2, human IkBα, or human CypA, such as commercially available (e.g. from R&D Systems, Cell Signaling, Santa Cruz Biotechnology, or other sources).

[3] = test system: latent HIV in resting CD4+ T-lymphocytes; assay: HIV-1 reactivation in resting CD4+ T cells from PBMCs of three ART-treated HIV patients (HIV RNA in supernatant); type: cell-based, human
Description: The experiments of this example analyzed the ability of IAPa, ICIs, or IAPa/ICI combinations at reactivating latent HIV in resting CD4+ T-lymphocytes isolated from peripheral blood monocytic cells (PBMCs) derived from HIV patients currently under ART.
Method: Resting CD4+ T cells were isolated from PBMCs of three ART-treated HIV patients by negative selection and magnetic separation (Easysep Mouse/Human Chimera Isolation Kits from […] technologies). Isolated resting CD4+ T cells (50,000 cells/50 μL) were treated in duplicate for 48h with different IAPa (1 μM) or ICI (10 μg/ml) in monotherapy, or the IAPa/ICI combinations. Amounts of virions released from cells were quantified at the indicated time points by quantifying HIV RNA levels (HIV RNA copies/mL) in supernatant of cell culture using one-step reverse transcriptase quantitative real-time PCR (ABI custom TaqMan Assays-by-Design) according to the manufacturer's instructions. Primers were 5-[…]-3 and 5-[…]-3, and MGB probe 5-FAM-[…]-Q-3, where FAM is 6-carboxyfluorescein.
(§1) The experiment was carried out using the same agents as described above for Example 8.1 (with the exception that no birinapant was used).

[4] = test system: latent HIV-1 in resting CD4+ T cells; assay: Ex vivo HIV-1 reactivation in human resting CD4+ T cells from ART-treated HIV-1-infected humanized BLT mice (HIV RNA in supernatant); type: cell-based
Protocol: The efficacy of IAPa, ICI or IAPa/ICI combinations in reversing HIV-1 latency was tested in resting CD4+ T cells derived from ART-treated HIV-1-infected humanized BLT mice.
Human resting CD4+ T cells from ten mice were isolated from blood, thymic organoid, lung, spleen, bone marrow, lymph nodes and liver. Isolated human resting CD4+ T cells were pooled, counted, split and treated in duplicate for 48 h with different IAPa (1 μM) or ICI (10 μg/ml) in monotherapy, or the IAPa/ICI combinations. Amounts of virions released from cells were quantified at the indicated time points by quantifying HIV RNA levels (HIV RNA copies/mL) in supernatant of cell culture using one-step reverse transcriptase quantitative real-time PCR (ABI custom TaqMan Assays-by-Design) according to the manufacturer's instructions. Primers were 5-[…]-3 and 5-[…]-3, and MGB probe 5-FAM-[…]-Q-3, where FAM is 6-carboxyfluorescein.
as §1

[5] = IAPa 1 μM monotherapy (0.1% DMSO, no ICI), 48 h (Table 3)
[6] = IAPa 1 μM with Control IgG1, 48 h (Table 3)
[7] = IAPa 1 μM with Control IgG2, 48 h (Table 3)
[8] = IAPa 1 μM monotherapy (0.1% DMSO, no ICI), 48 h
[9] = IAPa 1 μM with Control IgG1, 48 h
[10] = IAPa 1 μM with Control IgG2, 48 h

T1 sequence (Q13490 whole entry): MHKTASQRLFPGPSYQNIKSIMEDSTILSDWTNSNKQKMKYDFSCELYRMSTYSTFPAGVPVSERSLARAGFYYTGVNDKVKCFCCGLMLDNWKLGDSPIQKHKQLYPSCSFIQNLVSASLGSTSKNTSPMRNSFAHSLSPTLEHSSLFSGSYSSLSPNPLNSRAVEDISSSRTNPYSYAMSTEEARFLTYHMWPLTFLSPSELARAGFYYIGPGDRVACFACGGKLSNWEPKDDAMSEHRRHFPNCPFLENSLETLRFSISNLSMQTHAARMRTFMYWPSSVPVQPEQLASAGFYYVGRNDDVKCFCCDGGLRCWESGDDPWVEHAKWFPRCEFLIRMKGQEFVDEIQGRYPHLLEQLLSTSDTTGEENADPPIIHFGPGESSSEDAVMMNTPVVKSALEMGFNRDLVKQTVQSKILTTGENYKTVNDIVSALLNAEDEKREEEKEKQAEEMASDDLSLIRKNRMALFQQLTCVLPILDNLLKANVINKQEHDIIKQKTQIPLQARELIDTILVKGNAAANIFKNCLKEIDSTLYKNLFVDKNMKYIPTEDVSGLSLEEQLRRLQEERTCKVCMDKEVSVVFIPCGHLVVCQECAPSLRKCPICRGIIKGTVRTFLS

## CN1C(=O)[C@@]23C[C@]4([C@]56C[C@@]78SS[C@@](CO)(C(=O)N7[C@H]5Nc5ccccc56)N(C)C8=O)c5ccccc5N[C@@H]4N2C(=O)[C@]1(CO)SS3 [chaetocin]
2D10 cells
  cytotoxicity (LDH assay): highly toxic

## Cc1sc2c(c1C)C(c1ccc(Cl)cc1)=N[C@@H](CC(=O)OC(C)(C)C)c1nnc(C)n1-2 [JQ1]
[1]
  degree of HIV reactivation in combination with Debio 1143: high degrees of HIV reactivation

## CCC/C=C/C=C/C(=O)O[C@H]1/C(=C/C(=O)OC)C[C@H]2C[C@H]([C@@H](C)O)OC(=O)C[C@H](O)C[C@@H]3C[C@H](OC(C)=O)C(C)(C)[C@](O)(C[C@@H]4C/C(=C/C(=O)OC)C[C@H](/C=C/C(C)(C)[C@]1(O)O2)O4)O3 [bryostatin-1]
[1]
  degree of HIV reactivation in combination with Debio 1143: high degrees of HIV reactivation
2D10 cells
  cytotoxicity (LDH assay): highly toxic

## O=C(CCCCCCC(=O)Nc1ccccc1)NO [vorinostat]
[1]
  degree of HIV reactivation in combination with Debio 1143: high degrees of HIV reactivation

## CC[C@H](NC(=O)[C@H](C)NC)C(=O)N1C[C@@H](O)C[C@H]1Cc1c(-c2[nH]c3cc(F)ccc3c2C[C@@H]2C[C@H](O)CN2C(=O)[C@H](CC)NC(=O)[C@H](C)NC)[nH]c2cc(F)ccc12 [Birinapant]
[2]; IAPa 1 μM monotherapy (0.1% DMSO, no ICI), 48 h (Table 4)
  latency reversal class (HIV RNA copies/ml in supernatant): 3 (Subsequent classes were defined accordingly in steps of 500 RNA copies/ml)
[2]; IAPa 1 μM with Control IgG1, 48 h (Table 4)
  latency reversal class (HIV RNA copies/ml in supernatant): 3 (Subsequent classes were defined accordingly in steps of 500 RNA copies/ml)
[2]; IAPa 1 μM with Control IgG2, 48 h (Table 4)
  latency reversal class (HIV RNA copies/ml in supernatant): 3 (Subsequent classes were defined accordingly in steps of 500 RNA copies/ml)

## TNFα [reference compound]
BIRC2
  BIRC2 degradation: not

## CN[C@@H](C)C(=O)N[C@H](C(=O)N1CCC[C@H]1C(=O)Nc1sc(-c2ncco2)nc1-c1ccccc1)C1CCCCC1 [CUDC-427]
[2]; [5]
  latency reversal class (HIV RNA copies/ml in supernatant): 3 (Subsequent classes were defined accordingly in steps of 500 RNA copies/ml)
[2]; [6]
  latency reversal class (HIV RNA copies/ml in supernatant): 3 (Subsequent classes were defined accordingly in steps of 500 RNA copies/ml)
[2]; [7]
  latency reversal class (HIV RNA copies/ml in supernatant): 3 (Subsequent classes were defined accordingly in steps of 500 RNA copies/ml)
[3]; [8]
  latency reversal class (HIV RNA copies/ml in supernatant): 1 (Between 501 and 1000 RNA copies/ml were classified as “1”)
[3]; [9]
  latency reversal class (HIV RNA copies/ml in supernatant): 1 (Between 501 and 1000 RNA copies/ml were classified as “1”)
[3]; [10]
  latency reversal class (HIV RNA copies/ml in supernatant): 1 (Between 501 and 1000 RNA copies/ml were classified as “1”)
[4]; [8]
  latency reversal class (HIV RNA copies/ml in supernatant): 2 (Between 2501 and 5000 RNA copies/ml were classified as “2”)
[4]; [9]
  latency reversal class (HIV RNA copies/ml in supernatant): 2 (Between 2501 and 5000 RNA copies/ml were classified as “2”)
[4]; [10]
  latency reversal class (HIV RNA copies/ml in supernatant): 2 (Between 2501 and 5000 RNA copies/ml were classified as “2”)

## Cc1[nH]c2ccccc2c1CCNCc1ccc(/C=C/C(=O)NO)cc1 [panobinostat]
2D10 cells
  cytotoxicity (LDH assay): highly toxic

## CN[C@@H](C)C(=O)N[C@H](C(=O)N1CCC[C@H]1c1nc(C(=O)c2ccc(F)cc2)cs1)C1CCCCC1 [LCL161]
[2]; [5]
  latency reversal class (HIV RNA copies/ml in supernatant): 3 (Subsequent classes were defined accordingly in steps of 500 RNA copies/ml)
[2]; [6]
  latency reversal class (HIV RNA copies/ml in supernatant): 2 (Subsequent classes were defined accordingly in steps of 500 RNA copies/ml)
[2]; [7]
  latency reversal class (HIV RNA copies/ml in supernatant): 3 (Subsequent classes were defined accordingly in steps of 500 RNA copies/ml)
[3]; [8]
  latency reversal class (HIV RNA copies/ml in supernatant): 1 (Between 501 and 1000 RNA copies/ml were classified as “1”)
[3]; [9]
  latency reversal class (HIV RNA copies/ml in supernatant): 1 (Between 501 and 1000 RNA copies/ml were classified as “1”)
[3]; [10]
  latency reversal class (HIV RNA copies/ml in supernatant): 1 (Between 501 and 1000 RNA copies/ml were classified as “1”)
[4]; [8]
  latency reversal class (HIV RNA copies/ml in supernatant): 2 (Between 2501 and 5000 RNA copies/ml were classified as “2”)
[4]; [9]
  latency reversal class (HIV RNA copies/ml in supernatant): 2 (Between 2501 and 5000 RNA copies/ml were classified as “2”)
[4]; [10]
  latency reversal class (HIV RNA copies/ml in supernatant): 2 (Between 2501 and 5000 RNA copies/ml were classified as “2”)

## Nc1ccccc1NC(=O)c1ccc(CNC(=O)OCc2cccnc2)cc1 [entinostat]
[1]
  degree of HIV reactivation in combination with Debio 1143: high degrees of HIV reactivation
